These results are taken from US12398097B2, “WDR5-MYC inhibitors” (Vanderbilt University, priority 2019, dated 2025).

The experiment has as its target WDR5 (Homo sapiens, UniProt P61964). The experiment is described as follows: Competition-based fluorescence polarization anisotropy assay. The note with it: binding to WDR5; displacement of FITC-labeled small molecule probe (analogous to Example J2 or HCH-25) or peptide probe FITC-AHx-SEEEIDVVSV; pH 6.0; Ki converted from IC50. In a few lines:
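Ki values derive from displacement of either a fluorescent small-molecule probe or a FITC-peptide probe from WDR5, monitored by fluorescence polarization. Assay run at pH 6.0 in 200 mM phosphate with 300 mM NaCl, 0.5 mM TCEP and 0.1% Chaps.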
A general note: Polarisation of emitted light reports the rotation of a fluorescent probe.
Take `CNC(=O)c1cc(C2(C#N)CCC2)cc(NS(=O)(=O)c2cc(Br)cc3c2OCC3)c1O` [SN-9, 3-((5-bromo-2,3-dihydrobenzofuran)-7-sulfonamido)-5-(1-cyanocyclobutyl)-2-hydroxy-N-methylbenzamide]: the affinity, expressed as Ki, was 990 nM.

Compound `O=C(NC[C@H]1CCCO1)c1cc(Cl)cc(NS(=O)(=O)c2cc(Br)ccc2O)c1O` [Example J26, (R)-3-((5-Bromo-2-hydroxyphenyl)sulfonamido)-5-chloro-2-hydroxy-N-((tetrahydrofuran-2-yl)methyl)benzamide] came in with a Ki of 740 nM.

Compound `COCCNC(=O)c1cc(C2CC2)cc(NS(=O)(=O)c2cc(Br)ccc2O)c1O` [Example J86, 3-((5-Bromo-2-hydroxyphenyl)sulfonamido)-5-cyclopropyl-2-hydroxy-N-(2-methoxyethyl)benzamide] showed an inhibition constant (Ki) of 560 nM.

Take `O=[N+]([O-])c1cc(Cl)cc(NS(=O)(=O)c2cc(Br)cc3c2OCC3)c1O` [NE7, 5-Bromo-N-(5-chloro-2-hydroxy-3-nitrophenyl)-2,3-dihydrobenzofuran-7-sulfonamide]: affinity was put at a Ki of 1110 nM.

In turn, `O=C(N[C@H]1CCOC1)c1cc(C2CC2)cc(NS(=O)(=O)c2cc(Br)cc(Cl)c2O)c1O` [Example J97, (S)-3-((5-Bromo-3-chloro-2-hydroxyphenyl)sulfonamido)-5-cyclopropyl-2-hydroxy-N-(tetrahydrofuran-3-yl)benzamide] came in with an inhibition constant (Ki) of 140 nM.

Consider `CNS(=O)(=O)c1cc(Cl)cc(NS(=O)(=O)c2cc(Br)cc(Cl)c2O)c1O` [Example S28, 5-bromo-3-chloro-N-(5-chloro-2-hydroxy-3-(N-methylsulfamoyl)phenyl)-2-hydroxybenzenesulfonamide], for which the Ki is 20700 nM.

Turning to `COc1ccc(Br)cc1S(=O)(=O)Nc1cc(Cl)cc(C(=O)N2CC(O)C2)c1O` [Example J63, 5-Bromo-N-(5-chloro-2-hydroxy-3-(3-hydroxyazetidine-1-carbonyl)phenyl)-2-methoxybenzenesulfonamide], the affinity, expressed as Ki, was 5510 nM.

`CNC(=O)c1cc(Cl)cc(NS(=O)(=O)c2cc(Br)ccc2O)c1O` [Example J14, 3-((5-Bromo-2-hydroxyphenyl)sulfonamido)-5-chloro-2-hydroxy-N-methylbenzamide] gave a Ki of 370 nM.

Consider `CN1CCC(O)(CNC(=O)c2cc(OC(F)(F)F)cc(NS(=O)(=O)c3cc(Br)cc(Cl)c3O)c2O)CC1` [HCH-50, 3-((5-Bromo-3-chloro-2-hydroxyphenyl)sulfonamido)-2-hydroxy-N-((4-hydroxy-1-methylpiperidin-4-yl)methyl)-5-(trifluoromethoxy)benzamide], for which the affinity, expressed as Ki, was 210 nM.

Take `N#CC1(c2cc(NS(=O)(=O)c3cc(Br)ccc3O)c(O)c(C(=O)NCc3cc[nH]c(=O)c3)c2)CCC1` [Example J222, 3-((5-Bromo-2-hydroxyphenyl)sulfonamido)-5-(1-cyanocyclobutyl)-2-hydroxy-N-((2-oxo-1,2-dihydropyridin-4-yl)methyl)benzamide]: the Ki amounted to 410 nM. This Ki is about 2-fold higher than that of the compound before.

With `O=C(NC1CCOC1)c1cc(OC(F)(F)F)cc(NS(=O)(=O)c2cc(Br)ccc2O)c1O` (centres unmarked) [Example J167, 3-((5-Bromo-2-hydroxyphenyl)sulfonamido)-2-hydroxy-N-(tetrahydrofuran-3-yl)-5-(trifluoromethoxy)benzamide], the Ki stood at 360 nM.

In turn, `CS(=O)(=O)c1cc(Cl)cc(NS(=O)(=O)c2cc(Br)cc3c2OCC3)c1O` [Example S55, 5-Bromo-N-(5-chloro-2-hydroxy-3-(methylsulfonyl)phenyl)-2,3-dihydrobenzofuran-7-sulfonamide] displayed an inhibition constant Ki of 850 nM. Compared with the last compound, the Ki is about 2.4-fold higher.

On to `CC(C)CNc1ccc(Br)cc1S(=O)(=O)Nc1cc(C2CC2)cc(C(=O)O)c1O` [Example J74, 3-((5-Bromo-2-(isobutylamino)phenyl)sulfonamido)-5-cyclopropyl-2-hydroxybenzoic acid], for which the inhibitory constant (Ki) is 3930 nM. This Ki lies about 4.6-fold higher than the previous one.

In turn, `COCCNC(=O)c1cc(OC(F)(F)F)cc(NS(=O)(=O)c2cc(Br)ccc2O)c1O` [Example J163, 3-((5-Bromo-2-hydroxyphenyl)sulfonamido)-2-hydroxy-N-(2-methoxyethyl)-5-(trifluoromethoxy)benzamide] displayed an inhibitory constant (Ki) of 570 nM.

Compound `O=C(O)c1c(O)c(NS(=O)(=O)c2cc(Br)ccc2O)cc(-c2ccsc2)c1F` [Example J199, 3-((5-Bromo-2-hydroxyphenyl)sulfonamido)-6-fluoro-2-hydroxy-5-(thiophen-3-yl)benzoic acid] came in with an inhibition constant Ki of 640 nM.

`CC(C)[S+]([O-])c1cc(Cl)cc(NS(=O)(=O)c2cc(Br)ccc2O)c1O` (centres unmarked) [Example S23.3, 5-Bromo-N-(5-chloro-2-hydroxy-3-(isopropylsulfinyl)phenyl)-2-hydroxybenzenesulfonamide] registered a Ki of 360 nM.

`CCCc1cc(Br)cc(S(=O)(=O)Nc2cc(Cl)cc(C(=O)O)c2O)c1O` [HCH-17, 3-((5-Bromo-2-hydroxy-3-propylphenyl)sulfonamido)-5-chloro-2-hydroxybenzoic acid] registered a Ki of 320 nM.

Compound `CN(C)CCNC(=O)c1cc(C2CC2)cc(NS(=O)(=O)c2cc(Br)ccc2O)c1O` [Example J89] came in with a Ki of 1310 nM.

In turn, `O=C(NCC1(O)CCOCC1)c1cc(OC(F)(F)F)cc(NS(=O)(=O)c2cc(Br)cc(Cl)c2O)c1O` [HCH-53, 3-((5-Bromo-3-chloro-2-hydroxyphenyl)sulfonamido)-2-hydroxy-N-((4-hydroxytetrahydro-2H-pyran-4-yl)methyl)-5-(trifluoromethoxy)benzamide] came in with a Ki of 170 nM.

The compound `CS(=O)(=O)c1cc(NS(=O)(=O)c2cc(Br)cc(Cl)c2O)cc(C2(C#N)CCC2)c1` [Example S72, 5-Bromo-3-chloro-N-(3-(1-cyanocyclobutyl)-5-(methylsulfonyl)phenyl)-2-hydroxybenzenesulfonamide] displayed a Ki of 150 nM.

`O=C1CCCN1c1cc(Cl)cc(NS(=O)(=O)c2cc(Br)cc(Cl)c2O)c1` [NE13, 5-Bromo-3-chloro-N-(3-chloro-5-(2-oxopyrrolidin-1-yl)phenyl)-2-hydroxybenzenesulfonamide] registered a Ki of 1420 nM.

`CS(=O)(=O)c1cc(C2CC2)cc(NS(=O)(=O)c2cc(Br)cc(Cl)c2O)c1O` [Example S25-2, 5-Bromo-3-chloro-N-(5-cyclopropyl-2-hydroxy-3-(methylsulfonyl)phenyl)-2-hydroxybenzenesulfonamide] gave a Ki of 100 nM.

`CCN(CC)CCSc1cc(Cl)cc(NS(=O)(=O)c2cc(Br)cc(Cl)c2O)c1` [Example S34, 5-Bromo-3-chloro-N-(3-chloro-5-((2-(diethylamino)ethyl)thio)phenyl)-2-hydroxybenzenesulfonamide] gave a Ki of 510 nM.

Compound `N#CC1(c2cc(NS(=O)(=O)c3cc(Br)ccc3O)c(O)c(C(=O)N3CC(O)C3)c2)CCC1` [Example J224, 5-Bromo-N-(5-(1-cyanocyclobutyl)-2-hydroxy-3-(3-hydroxyazetidine-1-carbonyl)phenyl)-2-hydroxybenzenesulfonamide] came in with a Ki of 290 nM.

`CS(=O)(=O)c1cc(Cl)cc(NS(=O)(=O)c2cc(Br)ccc2O)c1O` [Example S17, 5-Bromo-N-(5-chloro-2-hydroxy-3-(methylsulfonyl)phenyl)-2-hydroxybenzenesulfonamide] had a Ki of 90 nM.

With `COc1ccc(Br)cc1S(=O)(=O)Nc1cc(C(=O)O)cc(C2=CCOCC2)c1` [Example J193, 3-((5-Bromo-2-methoxyphenyl)sulfonamido)-5-(3,6-dihydro-2H-pyran-4-yl)benzoic acid], the Ki was 69200 nM.

`CNC(=O)c1cc(S(F)(F)(F)(F)F)cc(NS(=O)(=O)c2cc(Br)cc(Cl)c2O)c1O` [Example S63, 3-((5-Bromo-3-chloro-2-hydroxyphenyl)sulfonamido)-2-hydroxy-N-methyl-5-(pentafluoro-λ^6-sulfaneyl)benzamide] gave a Ki of 160 nM.

As to `COc1cc(Cl)c(Br)cc1S(=O)(=O)Nc1cc(C2CC2)cc(C(=O)O)c1O` [Example J71, 3-((5-Bromo-4-chloro-2-methoxyphenyl)sulfonamido)-5-cyclopropyl-2-hydroxybenzoic acid], the affinity corresponds to a Ki of 2720 nM.

The compound `CNC(=O)c1cc(C2CC2)cc(NS(=O)(=O)c2cc(Br)ccc2O)c1F` [Example J141, 3-((5-Bromo-2-hydroxyphenyl)sulfonamido)-5-cyclopropyl-2-fluoro-N-methylbenzamide] gave a Ki of 960 nM.

`COCCNC(=O)c1cc(Cl)cc(NS(=O)(=O)c2cc(Br)cc(Cl)c2O)c1O` [Example J42, 3-((5-Bromo-3-chloro-2-hydroxyphenyl)sulfonamido)-5-chloro-2-hydroxy-N-(2-methoxyethyl)benzamide] had a Ki of 300 nM.

Compound `O=C(NC1COC1)c1cc(NS(=O)(=O)c2cc(Br)cc(Cl)c2O)cc(C2CC2)c1F` [Example J155, 5-((5-Bromo-3-chloro-2-hydroxyphenyl)sulfonamido)-3-cyclopropyl-2-fluoro-N-(oxetan-3-yl)benzamide] showed a Ki of 330 nM.

As for `COc1ccc(Br)cc1S(=O)(=O)Nc1cc(C2CC2)cc(C(=O)O)c1O` [Example J69, 3-((5-Bromo-2-methoxyphenyl)sulfonamido)-5-cyclopropyl-2-hydroxybenzoic acid], the affinity corresponds to a Ki of 1940 nM.

Compound `COc1ccc(Br)cc1S(=O)(=O)Nc1cc(N2CCOCC2)cc(C(=O)O)c1O` [Example J194, 3-((5-Bromo-2-methoxyphenyl)sulfonamido)-2-hydroxy-5-morpholinobenzoic acid] registered a Ki of 10300 nM.

`N#CC1(c2ccc(O)c(NS(=O)(=O)c3cc(Br)ccc3O)c2)CCCC1` [JDM-06-030A, 5-Bromo-N-(5-(1-cyanocyclopentyl)-2-hydroxyphenyl)-2-hydroxybenzenesulfonamide]: the Ki turned out to be 610 nM.

As to `O=C(NC1CCOC1)c1cc(Cl)cc(NS(=O)(=O)c2cc(Br)ccc2O)c1O` (centres unmarked) [Example J18, 3-((5-Bromo-2-hydroxyphenyl)sulfonamido)-5-chloro-2-hydroxy-N-(tetrahydrofuran-3-yl)benzamide], the Ki turned out to be 1350 nM.

Broadly, the Ki is a dissociation constant, usually derived from enzyme kinetics or from competition with a known ligand. A low value points to a stronger hold on the target.
